Our source for the IC50 values is patent publication US6551999B1, “Angiogenesis inhibitor” (Senju Pharmaceutical Co., Ltd., priority 1995, dated 2003).

SMILES strings stand for the structures. Peptide text beside a SMILES is read from it. * marks the point of attachment. Tos = Cc1ccc(S(=O)(=O)*)cc1

In one test the target is T1, μ-calpain (Homo sapiens, UniProt P07384).
T1 construct: purchased Nakalai Tesque
T1 sequence (P07384 1-714): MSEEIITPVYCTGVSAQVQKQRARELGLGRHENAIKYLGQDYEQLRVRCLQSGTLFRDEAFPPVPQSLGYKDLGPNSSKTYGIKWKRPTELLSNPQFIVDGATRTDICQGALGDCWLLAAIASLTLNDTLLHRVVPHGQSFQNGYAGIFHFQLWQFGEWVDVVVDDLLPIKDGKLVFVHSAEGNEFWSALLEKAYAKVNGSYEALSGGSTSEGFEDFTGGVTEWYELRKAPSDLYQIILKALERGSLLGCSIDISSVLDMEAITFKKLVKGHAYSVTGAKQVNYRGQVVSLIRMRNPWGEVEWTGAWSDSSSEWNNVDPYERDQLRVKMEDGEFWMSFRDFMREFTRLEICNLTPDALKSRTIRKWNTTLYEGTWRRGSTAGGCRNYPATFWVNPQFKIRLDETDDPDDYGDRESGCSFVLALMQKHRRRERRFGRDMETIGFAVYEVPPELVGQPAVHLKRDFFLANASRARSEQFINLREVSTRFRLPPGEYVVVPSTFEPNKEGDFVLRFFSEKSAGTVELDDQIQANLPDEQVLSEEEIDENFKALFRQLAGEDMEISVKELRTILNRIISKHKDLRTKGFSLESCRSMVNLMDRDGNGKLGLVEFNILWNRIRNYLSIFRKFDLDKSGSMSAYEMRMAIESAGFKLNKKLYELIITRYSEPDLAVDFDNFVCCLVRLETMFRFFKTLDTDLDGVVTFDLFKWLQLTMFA
T1 sequence (P04632 1-268 partner): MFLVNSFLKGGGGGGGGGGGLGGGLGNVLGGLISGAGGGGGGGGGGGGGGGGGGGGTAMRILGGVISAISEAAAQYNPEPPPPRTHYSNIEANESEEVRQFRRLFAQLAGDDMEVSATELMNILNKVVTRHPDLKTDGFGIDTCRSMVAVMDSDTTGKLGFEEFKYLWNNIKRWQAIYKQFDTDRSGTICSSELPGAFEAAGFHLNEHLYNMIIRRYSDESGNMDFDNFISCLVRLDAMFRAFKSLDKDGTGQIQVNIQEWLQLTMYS
The experiment in a line: μ-Calpain-inhibitory activity (casein substrate). Type of test: biochemical. The note with it: 60 minutes at 30° C., pH 7.4, 4 mM calcium chloride. The protocol: Thus, to a solution containing 0.5 mg/ml casein, 50 mM Tris-HCl (pH 7.4), 20 mM dithiothreitol, and 4 mM calcium chloride was added 2.5 μl of a dimethyl sulfoxide solution containing a varying concentration of the test drug as well as 0.03 unit of μcalpain to initiate the reaction. The final liquid volume was 250 μl. After 60 minutes of reaction at 30° C., 100 μl of the reaction mixture was transferred to another vessel, to which 50 μl of purified water and 100 μl of 50% Coumassie brilliant blue solution were added. […] As a control, 2.5 μl of dimethyl sulfoxide not containing the test drug was added and the mixture was treated in the same manner as above. […] Similarly, the value found by adding 0.2 mM EDTA in lieu of 4 mM aqueous calcium chloride solution was used as the blank value. […] [formula]
Take `CC(C)C[C@H](NC(=O)[C@H]1O[C@@H]1C(=O)O)C(=O)N1CCN(c2cccc(Cl)c2)CC1` [Compound 18, (2s,3s)-3-[[[[(1s)-1-[[4-(3-chlorophenyl)-1-piperazinyl]carbonyl]-3-methyl]butyl]amino]carbonyl]oxiranecarboxylic acid]: the IC50 was found to be 0.63 µM.
The same measure, in the same setting: with `CC(C)[C@H](NS(=O)(=O)c1ccc(Cl)cc1)C(=O)N[C@H](C=O)Cc1c[nH]c2ccccc12` [Compound 48, N-(4-chlorophenylsulfonyl)-L-valyl-L-tryptophanal] the figure was 0.013 µM; with `CC(C)[C@H](NS(=O)(=O)c1ccc2ccccc2c1)C(=O)N[C@H](C=O)Cc1ccccc1` [Compound 44, N-(2-naphthalenesulfonyl)-L-valyl-L-phenylalaninal], 0.014 µM.
The same measure, in the same setting: with `CSCC[C@H](NC(=O)[C@H]1O[C@@H]1C(=O)O)C(=O)N1CCN(c2ccccc2Cl)CC1` [Compound 29, (2s,3s)-3-[[[[(1s)-1-[[4-(2-chlorophenyl)-1-piperazinyl]carbonyl]-3-methylthio]propyl]amino]carbonyl]oxiranecarboxylic acid] the figure was 0.6 µM; with `CC(C)(C)[C@H](NS(=O)(=O)c1ccc2ccccc2c1)C(=O)N[C@H](C=O)Cc1c[nH]c2ccccc12` [Compound 51, N-(2-naphthalenesulfonyl)-L-tert-leucyl-L-tryptophanal], 1.1 µM; with `CC(C)[C@H](NS(=O)(=O)c1ccc(F)cc1)C(=O)N[C@H](C=O)Cc1c[nH]c2ccccc12` [Compound 49, N-(4-fluorophenylsulfonyl)-L-valyl-L-tryptophanal], 0.023 µM.
Same read-out and setting: with `O=C[C@H](Cc1c[nH]c2ccccc12)NC(=O)C1(NS(=O)(=O)c2ccc3ccccc3c2)CCCCC1` [Compound 50, 1-(2-naphthalenesulfonylamino)cyclohexanecarbonyl-L-tryptophanal] the figure was 0.36 µM; with `O=C(O)[C@H]1O[C@@H]1C(=O)NC1(C(=O)N2CCN(c3ccc(F)cc3)CC2)CCCC1` [Compound 31, (2s,3s)-3-[[[(1s)-1-[[4-(4-fluorophenyl)-1-piperazinyl]carbonyl]-1-cyclopentyl]amino]carbonyl]oxiranecarboxylic acid], 150 µM; with `Cc1ccc(S(=O)(=O)N[C@H](C(=O)N[C@H](C=O)CC(C)C)C(C)C)cc1` [Compound 37, N-(4-methylphenylsulfonyl)-L-valyl-L-leucinal] (Tos-Val-Leu-aldehyde), 0.028 µM.
With `CC(C)C[C@@H](C=O)NC(=O)[C@@H](NS(=O)(=O)c1ccc2ccccc2c1)C(C)C` [Compound 34, N-(2-naphthalenesulfonyl)-L-valyl-L-leucinal], the IC50 was 0.01 µM.
The same measure, in the same setting: with `CCCC[C@H](NS(=O)(=O)c1ccc(F)cc1)C(=O)N[C@H](C=O)CC(C)C` [Compound 40, N-(4-fluorophenylsulfonyl)-L-norleucyl-L-leucinal] the figure was 0.26 µM; with `CC(C)[C@H](NS(=O)(=O)c1ccc(Cl)cc1)C(=O)N[C@H](C=O)Cc1ccccc1` [Compound 45, N-(4-chlorophenylsulfonyl)-L-valyl-L-phenylalaninal], 0.014 µM; with `CC(C)[C@H](NS(=O)(=O)c1ccc(F)cc1)C(=O)NC(C=O)CC1CCCCC1` (stereo partly drawn) [Compound 52, N-(4-fluorophenylsulfonyl)-L-valyl-L-cyclohexylalaninal], 0.03 µM.
The same measure, in the same setting: the value for `Cc1ccc(S(=O)(=O)N[C@H](C(=O)N[C@H](C=O)Cc2ccccc2)C(C)C)cc1` [Compound 46, N-(4-methylphenylsulfonyl)-L-valyl-L-phenylalaninal] (Tos-Val-Phe-aldehyde) was 0.018 µM.
Still for that read-out and setting: with `CC(C)[C@H](NS(=O)(=O)c1ccc(Cl)cc1)C(=O)NC(C=O)CC1CCCCC1` (stereo partly drawn) [Compound 54, N-(4-chlorophenylsulfonyl)-L-valyl-L-cyclohexylalaninal] the figure was 0.014 µM; with `CC(C)[C@H](NS(=O)(=O)c1ccc2ccccc2c1)C(=O)NC(C=O)CC1CCCCC1` (stereo partly drawn) [Compound 53, N-(2-naphthalenesulfonyl)-L-valyl-L-cyclohexylalaninal], 0.0083 µM; with `O=C(O)[C@H]1O[C@@H]1C(=O)NCCC(=O)N1CCN(c2ccccc2Cl)CC1` [Compound 25, (2s,3s)-3-[[[2-[[4-(2-chlorophenyl)-1-piperazinyl]carbonyl]ethyl]amino]carbonyl]oxiranecarboxylic acid], 41 µM.
On to `C[C@H](NC(=O)[C@H]1O[C@@H]1C(=O)O)C(=O)N1CCN(c2ccccc2Cl)CC1` [Compound 23, (2s,3s)-3-[[[(1s)-1-[[4-(2-chlorophenyl)-1-piperazinyl]carbonyl]ethyl]amino]carbonyl]oxiranecarboxylic acid], for which the IC50 came out at 5.1 µM.
For `CC(C)C[C@H](NC(=O)[C@H]1O[C@@H]1C(=O)O)C(=O)N1CCN(c2ccc(Cl)cc2)CC1` [Compound 19, (2s,3s)-3-[[[[(1s)-1-[[4-(4-chlorophenyl)-1-piperazinyl]carbonyl]-3-methyl]butyl]amino]carbonyl]oxiranecarboxylic acid], the IC50 was 0.49 µM.
On the same count and under the same terms, with `O=C(O)[C@H]1O[C@@H]1C(=O)N1CCC[C@H]1C(=O)N1CCN(c2ccccc2Cl)CC1` [Compound 27, (2s,3s)-3-[[(2s)-2-[[4-(2-chloro-phenyl)-1-piperazinyl]carbonyl]-1-pyrrolidinyl]carbonyl]oxiranecarboxylic acid] the figure was 2400 µM; with `Cc1ccc(S(=O)(=O)N2CCN(C(=O)[C@H](CC(C)C)NC(=O)[C@H]3O[C@@H]3C(=O)NO)CC2)cc1` [Compound 33, (2s,3s)-3-[[[[(1s)-1-[[4-(4-methylphenylsulfonyl)-1-piperazinyl]carbonyl]-3-methyl]butyl]amino]carbonyl]oxiranecarbohydroxamic acid], 1.9 µM.
Same read-out and setting: the value for `CC(C)[C@H](NC(=O)[C@H]1O[C@@H]1C(=O)O)C(=O)N1CCN(c2ccccc2Cl)CC1` [Compound 21, (2s,3s)-3-[[[[(1s)-1-[[4-(2-chlorophenyl)-1-piperazinyl]carbonyl]-2-methyl]propyl]amino]carbonyl]oxiranecarboxylic acid] was 0.95 µM; that for `O=C[C@H](Cc1ccccc1)NC(=O)C1(NS(=O)(=O)c2ccc3ccccc3c2)CCCCC1` [Compound 47] was 0.2 µM; that for `CC(C)(C)[C@H](NS(=O)(=O)c1ccc2ccccc2c1)C(=O)N[C@H](C=O)Cc1ccccc1` [Compound 42, N-(2-naphthalenesulfonyl)-L-tert-leucyl-L-phenylalaninal] was 3.2 µM.

Still in this test, the particulars now being: read-out: Calpain 50% inhibitory concentration (IC50); 60 minutes at 30° C., pH 7.4, 4 mM calcium chloride.
On to `CC(=O)NCSC[C@@H](NC(=O)[C@H]1O[C@@H]1C(=O)O)C(=O)N1CCN(c2ccccc2Cl)CC1` [Compound 28, (2s,3s)-3-[[[[(1s)1-[[4-(2-chlorophenyl)-1-piperazinyl]carbonyl]-2-acetylaminomethylthio]-ethyl]amino]carbonyl]oxiranecarboxylic acid], for which the IC50 came out at 3.9 µM.
On the same count and under the same terms, the value for `CCOC(=O)[C@H]1O[C@@H]1C(=O)N[C@@H](CC(C)C)C(=O)N1CCN(c2ccc(F)cc2)CC1` [Compound 3, ethyl (2s,3s)-3-[[[[(1s)-1-[[4-(4-fluorophenyl)-1-piperazinyl]carbonyl]-3-methyl]butyl]amino]carbonyl]oxiranecarboxylate] was 47 µM.
